Laboratory results published in ChEMBL document CHEMBL3217756, “Biological and computational evaluation of an oxadiazole derivative (MD77) as a new lead for direct STAT3 inhibitors” (Medchemcomm, 2012).

Tests used:
[1] = target: Signal transducer and activator of transcription 1-alpha/beta (Homo sapiens) (UniProt P42224); test: Inhibition of SH2 domain of STAT1 (unknown origin) using FITC-GpYDKPHVL as substrate at 30 uM preincubated for 15 mins before substrate addition measured after 90 mins by alphascreen based assay
[2] = target: Signal transducer and activator of transcription 3 (Homo sapiens, UniProt P40763); test: Inhibition of STAT3 in human HCT116 cells at 5 uM after 24 hrs by dual-light luciferase reporter gene assay; assay type: cell-based; details: HCT-116
ACHN = test: Cytotoxicity against human ACHN cells after 48 hrs by sulforhodamine B assay; assay type: functional
MCF7 = test: Cytotoxicity against human MCF7 cells after 48 hrs by sulforhodamine B assay; assay type: functional; details: MCF7, 48 h
DU-145 = test: Cytotoxicity against human DU145 cells after 48 hrs by sulforhodamine B assay; assay type: functional; details: DU-145, 48 h
MOLT-4 = test: Cytotoxicity against human MOLT4 cells after 48 hrs by sulforhodamine B assay; assay type: functional; details: MOLT-4, 48 h
HCT-116 = test: Cytotoxicity against human HCT116 cells after 48 hrs by sulforhodamine B assay; assay type: functional; details: HCT-116, 48 h
PC-3 = test: Cytotoxicity against human PC3 cells after 48 hrs by sulforhodamine B assay; assay type: functional; details: PC-3, 48 h
[3] = target: T1, Growth factor receptor-bound protein 2 (Homo sapiens, UniProt P62993); test: Inhibition of SH2 domain of GRB2 (unknown origin) using FITC-PSpYVNVQN as substrate at 30 uM preincubated for 15 mins before substrate addition measured after 90 mins by alphascreen based assay
Target sequence in this assay (P62993 whole entry, looked up, the tested form may be a part): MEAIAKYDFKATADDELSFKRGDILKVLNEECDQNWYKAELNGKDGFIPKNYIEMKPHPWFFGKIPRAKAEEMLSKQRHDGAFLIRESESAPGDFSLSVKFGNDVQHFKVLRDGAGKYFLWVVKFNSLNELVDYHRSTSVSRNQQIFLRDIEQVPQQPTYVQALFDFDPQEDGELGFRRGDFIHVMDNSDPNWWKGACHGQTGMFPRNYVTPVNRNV

A498 = test: Cytotoxicity against human A498 cells after 48 hrs by sulforhodamine B assay; assay type: functional; details: A498, 48 h
MDA-MB-468 = test: Cytotoxicity against human MDA-MB-468 cells after 48 hrs by sulforhodamine B assay; assay type: functional; details: MDA-MB-468, 48 h
A549 = test: Cytotoxicity against human A549 cells after 48 hrs by sulforhodamine B assay; assay type: functional; details: A549, 48 h
HOP-92 = test: Cytotoxicity against human HOP92 cells after 48 hrs by sulforhodamine B assay; assay type: functional; details: HOP-92, 48 h
[4] = Cytotoxicity against human Hs 578T cells after 48 hrs by sulforhodamine B assay; assay type: functional
[5] = target: T1, Growth factor receptor-bound protein 2; test: Inhibition of SH2 domain of GRB2 (unknown origin) using FITC-PSpYVNVQN as substrate preincubated for 15 mins before substrate addition measured after 90 mins by alphascreen based assay
Target sequence in this assay (P62993 whole entry, the tested form may be a part): as the sequence (P62993 whole entry, looked up, the tested form may be a part) above

CAKI-1 = test: Cytotoxicity against human CAKI-1 cells after 48 hrs by sulforhodamine B assay; assay type: functional; details: CAKI-1, 48 h
SR = test: Cytotoxicity against human SR cells after 48 hrs by sulforhodamine B assay; assay type: functional
HT-29 = test: Cytotoxicity against human HT-29 cells after 48 hrs by sulforhodamine B assay; assay type: functional; details: HT-29, 48 h
SF-268 = test: Cytotoxicity against human SF268 cells after 48 hrs by sulforhodamine B assay; assay type: functional; details: SF-268, 48 h
NCI-H23 = test: Cytotoxicity against human NCI-H23 cells after 48 hrs by sulforhodamine B assay; assay type: functional; details: NCI-H23, 48 h
SN12C = test: Cytotoxicity against human SN12C cells after 48 hrs by sulforhodamine B assay; assay type: functional
[6] = Cytotoxicity against human OVCAR8 cells after 48 hrs by sulforhodamine B assay; assay type: functional; details: OVCAR-8, 48 h
[7] = read-out: LC50 (the source's name)
[8] = read-out: pLC50 (the source's name) (converted)

Sequence of Signal transducer and activator of transcription 1-alpha/beta (Homo sapiens) (P42224 whole entry, the tested form may be a part): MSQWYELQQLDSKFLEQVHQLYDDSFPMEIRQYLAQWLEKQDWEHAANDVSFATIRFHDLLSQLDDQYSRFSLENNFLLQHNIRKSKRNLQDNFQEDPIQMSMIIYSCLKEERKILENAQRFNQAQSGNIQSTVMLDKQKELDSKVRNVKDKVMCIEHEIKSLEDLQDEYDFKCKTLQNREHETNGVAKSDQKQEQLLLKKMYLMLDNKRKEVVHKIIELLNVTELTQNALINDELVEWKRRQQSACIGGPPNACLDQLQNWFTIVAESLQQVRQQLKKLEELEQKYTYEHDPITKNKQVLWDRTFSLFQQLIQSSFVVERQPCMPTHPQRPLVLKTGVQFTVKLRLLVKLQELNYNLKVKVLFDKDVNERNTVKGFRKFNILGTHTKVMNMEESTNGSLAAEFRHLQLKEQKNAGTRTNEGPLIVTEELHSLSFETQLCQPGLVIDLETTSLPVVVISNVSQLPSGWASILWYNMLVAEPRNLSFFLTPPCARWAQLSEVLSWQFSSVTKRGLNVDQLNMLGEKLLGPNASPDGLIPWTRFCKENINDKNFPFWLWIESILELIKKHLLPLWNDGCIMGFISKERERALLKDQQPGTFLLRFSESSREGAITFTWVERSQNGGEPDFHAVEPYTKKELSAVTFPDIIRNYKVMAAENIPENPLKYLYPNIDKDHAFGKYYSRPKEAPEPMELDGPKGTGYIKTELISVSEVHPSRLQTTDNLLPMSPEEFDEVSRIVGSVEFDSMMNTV
Sequence of Signal transducer and activator of transcription 3 (P40763 whole entry): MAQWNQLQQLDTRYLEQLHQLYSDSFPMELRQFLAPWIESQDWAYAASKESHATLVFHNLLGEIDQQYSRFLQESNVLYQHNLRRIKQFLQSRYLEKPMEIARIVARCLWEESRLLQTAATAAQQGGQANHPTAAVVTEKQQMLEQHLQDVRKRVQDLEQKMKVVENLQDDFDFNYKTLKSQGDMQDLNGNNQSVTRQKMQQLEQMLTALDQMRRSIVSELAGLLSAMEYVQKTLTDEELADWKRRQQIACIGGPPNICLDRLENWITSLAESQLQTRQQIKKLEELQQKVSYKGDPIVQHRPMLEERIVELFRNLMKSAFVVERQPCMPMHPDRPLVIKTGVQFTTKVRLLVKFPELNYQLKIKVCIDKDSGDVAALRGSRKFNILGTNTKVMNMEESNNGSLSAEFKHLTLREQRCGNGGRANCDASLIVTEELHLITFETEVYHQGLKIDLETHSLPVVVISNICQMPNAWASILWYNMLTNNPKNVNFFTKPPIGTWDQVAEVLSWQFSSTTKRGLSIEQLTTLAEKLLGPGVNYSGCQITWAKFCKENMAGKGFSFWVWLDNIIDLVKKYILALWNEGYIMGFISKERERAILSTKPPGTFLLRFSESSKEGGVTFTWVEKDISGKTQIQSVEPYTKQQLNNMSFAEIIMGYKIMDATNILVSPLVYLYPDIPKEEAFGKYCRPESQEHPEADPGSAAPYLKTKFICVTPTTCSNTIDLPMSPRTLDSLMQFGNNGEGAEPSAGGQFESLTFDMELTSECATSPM

O=C(Nc1nonc1-c1ccc(Cl)cc1)c1ccc(C(F)(F)F)cc1
inhibition [1]: 94.6% | inhibition [2]: 20% | GI50 (ACHN; read-out: GI50): 3.1 µM | CC50 (ACHN; [7]): > 100 µM | TGI (ACHN; read-out: TGI): 8.74 µM | GI50 (ACHN; read-out: pGI50 (converted)): 3.09 µM | CC50 (ACHN; [8]): > 100 µM | TGI (ACHN; read-out: pTGI (converted)): 8.71 µM | GI50 (MCF7; read-out: GI50): 2840 nM | CC50 (MCF7; [7]): > 100 µM | TGI (MCF7; read-out: TGI): 8.15 µM | GI50 (MCF7; read-out: pGI50 (converted)): 2820 nM | CC50 (MCF7; [8]): > 100 µM | TGI (MCF7; read-out: pTGI (converted)): 8.13 µM | GI50 (DU-145; read-out: GI50): 3.48 µM | CC50 (DU-145; [7]): > 100 µM | TGI (DU-145; read-out: TGI): > 100 µM | GI50 (DU-145; read-out: pGI50 (converted)): 3.47 µM | CC50 (DU-145; [8]): > 100 µM | TGI (DU-145; read-out: pTGI): > 100 µM | GI50 (MOLT-4; read-out: GI50): 1670 nM | CC50 (MOLT-4; [7]): > 100 µM | TGI (MOLT-4; read-out: TGI): 6.05 µM | GI50 (MOLT-4; read-out: pGI50 (converted)): 1660 nM | CC50 (MOLT-4; [8]): > 100 µM | TGI (MOLT-4; read-out: pTGI (converted)): 6.03 µM | GI50 (HCT-116; read-out: GI50): 2170 nM | CC50 (HCT-116; [7]): > 100 µM | GI50 (HCT-116; read-out: pGI50 (converted)): 2190 nM | CC50 (HCT-116; [8]): > 100 µM | GI50 (PC-3; read-out: GI50): 1380 nM | CC50 (PC-3; [7]): > 100 µM | TGI (PC-3; read-out: TGI): 8.91 µM | GI50 (PC-3; read-out: pGI50 (converted)): 1380 nM | CC50 (PC-3; [8]): > 100 µM | TGI (PC-3; read-out: pTGI (converted)): 8.91 µM | inhibition [3]: 10.5% | GI50 (A498; read-out: GI50): 1730 nM | LC50 (A498; read-out: LC50): > 100 µM | TGI (A498; read-out: TGI): 5.46 µM | GI50 (A498; read-out: pGI50 (converted)): 1740 nM | LC50 (A498; read-out: pLC50 (converted)): > 100 µM | TGI (A498; read-out: pTGI (converted)): 5.5 µM | GI50 (MDA-MB-468; read-out: GI50): 3.36 µM | LC50 (MDA-MB-468; read-out: LC50): > 100 µM | TGI (MDA-MB-468; read-out: TGI): 27 µM | GI50 (MDA-MB-468; read-out: pGI50 (converted)): 3.39 µM | LC50 (MDA-MB-468; read-out: pLC50 (converted)): > 100 µM | TGI (MDA-MB-468; read-out: pTGI (converted)): 26.9 µM | GI50 (A549; read-out: GI50): 2530 nM | CC50 (A549; [7]): > 100 µM | TGI (A549; read-out: TGI): > 100 µM | GI50 (A549; read-out: pGI50 (converted)): 2510 nM | CC50 (A549; [8]): > 100 µM | TGI (A549; read-out: pTGI): > 100 µM | GI50 (HOP-92; read-out: GI50): 668 nM | CC50 (HOP-92; [7]): > 100 µM | TGI (HOP-92; read-out: TGI): 3.96 µM | GI50 (HOP-92; read-out: pGI50 (converted)): 661 nM | CC50 (HOP-92; [8]): > 100 µM | TGI (HOP-92; read-out: pTGI (converted)): 3.98 µM | GI50 ([4]; read-out: GI50): 2530 nM | CC50 [4, 7]: > 100 µM | TGI ([4]; read-out: TGI): > 100 µM | GI50 ([4]; read-out: pGI50 (converted)): 2510 nM | CC50 [4, 8]: > 100 µM | TGI ([4]; read-out: pTGI): > 100 µM | IC50 [5]: > 100 µM | GI50 (CAKI-1; read-out: GI50): 1900 nM | CC50 (CAKI-1; [7]): > 100 µM | TGI (CAKI-1; read-out: TGI): 7.59 µM | GI50 (CAKI-1; read-out: pGI50 (converted)): 1910 nM | CC50 (CAKI-1; [8]): > 100 µM | TGI (CAKI-1; read-out: pTGI (converted)): 7.59 µM | GI50 (SR; read-out: GI50): 2850 nM | CC50 (SR; [7]): > 100 µM | TGI (SR; read-out: TGI): 10.6 µM | GI50 (SR; read-out: pGI50 (converted)): 2820 nM | CC50 (SR; [8]): > 100 µM | TGI (SR; read-out: pTGI (converted)): 10.7 µM | GI50 (HT-29; read-out: GI50): 3.23 µM | CC50 (HT-29; [7]): > 100 µM | TGI (HT-29; read-out: TGI): > 100 µM | GI50 (HT-29; read-out: pGI50 (converted)): 3.24 µM | CC50 (HT-29; [8]): > 100 µM | TGI (HT-29; read-out: pTGI): > 100 µM | GI50 (SF-268; read-out: GI50): 1810 nM | LC50 (SF-268; read-out: LC50): > 100 µM | TGI (SF-268; read-out: TGI): > 100 µM | GI50 (SF-268; read-out: pGI50 (converted)): 1820 nM | LC50 (SF-268; read-out: pLC50 (converted)): > 100 µM | TGI (SF-268; read-out: pTGI): > 100 µM | GI50 (NCI-H23; read-out: GI50): 1890 nM | CC50 (NCI-H23; [7]): > 100 µM | TGI (NCI-H23; read-out: TGI): 7.94 µM | GI50 (NCI-H23; read-out: pGI50 (converted)): 1910 nM | CC50 (NCI-H23; [8]): > 100 µM | TGI (NCI-H23; read-out: pTGI (converted)): 7.94 µM | GI50 (SN12C; read-out: GI50): 2870 nM | CC50 (SN12C; [7]): > 100 µM | TGI (SN12C; read-out: TGI): > 100 µM | GI50 (SN12C; read-out: pGI50 (converted)): 2880 nM | CC50 (SN12C; [8]): > 100 µM | TGI (SN12C; read-out: pTGI): > 100 µM | GI50 ([6]; read-out: GI50): 2870 nM | CC50 [6, 7]: > 100 µM | TGI ([6]; read-out: TGI): > 100 µM | GI50 ([6]; read-out: pGI50 (converted)): 2880 nM | CC50 [6, 8]: > 100 µM | TGI ([6]; read-out: pTGI): > 100 µM
